Test results taken from publication PMC10873978, “Novel tetrahydroisoquinolines as DHFR and CDK2 inhibitors: synthesis, characterization, anticancer activity and antioxidant properties” (BMC Chemistry, 2024).
Read-outs that look alike come from different tables or passages of the source.

Experiments:
[1] = tested on: A549 cell line; assay: In vitro cytotoxic activity, MTT method, A549
Method: (§1) Cell lines: The in vitro human breast cancerous cell line (MCF7), lung cancerous cell lines (A549) and normal cell lines were purchased from Serum and Vaccine formulation in Cairo-Egypt.
(§2) In vitro cytotoxic activity of all synthesized compounds against two human breast cell line (MCF7) and lung cell lines (A549) was evaluated according to the MTT method. Firstly, Growth the cell line medium in 96 well tissue culture plate was injected with 10^5 cells/mL (100 uL/plate well) of the cell line and incubated at 37 °C for 24 h to develop a monolayer sheet then the formed growth medium was poured from 96 well microtiter plates after the confluent sheet of cells. […] Secondly, add 0.1 mL of each concentration tetrahydroisoquinoline sample to each plate. The plates were incubated at 37 °C. Thirdly MTT solution (5 mg/mL in PBS) is prepared. Add 20 µL of MTT solution to each well plates. And shaking in 150 rpm for 5 min, to mix the MTT into the media. Then incubate at (37 °C, 5% CO2) for 1–5 h. Finally read the optical density at 560 nm and subtract background at 620 nm.
(§3) In this work, doxorubicin was used as a positive control drug for comparison with the synthesized compounds under the same experimental conditions.

[2] = tested on: MCF7 cell line; assay: In vitro cytotoxic activity, MTT method, MCF7; type: cell-based, human
Method: as §1, §2, §3

[3] = DPPH scavenging antioxidant activity
Method: The antioxidant activity of ten compounds was determined using DPPH [32–34]. A solution 1: prepared by dissolving DPPH (0.002 g) in ethanol (50 mL etnanol). Solution 2: prepared by dissolving different weights 0.05, 0.01 g of each sample in 1 mL of DMSO then take 10 µL of each sample solution with 1 mL ethanol. Then mix 1 mL of solution 1 with 1 mL of solution 2 then vortex the resulting mixture in the dark for about 30 min. The absorbance of the mixture was measured by spectrophotometer at λmax = 517 nm against blank 1 mL absolute ethanol and compared to the ascorbic acid (Vitamin C).
Ten newly synthesized compounds were studied as in vitro antioxidants by measuring of their DPPH scavenging activity which is represented as a percentage % [32]^. Results are represented by mean ± SD of three replicates. […] The higher dose concentration of 0.05 μg/mL represents higher antioxidant activity. […] The high antioxidant activity is referred to the presence of C=O, NH2, and OH groups like ascorbic acid which can be easily oxidized and reduced and can be used as antioxidant drugs. (Fig. 8 and Table 9).

In the case of `CC(=O)C1C(c2ccc(N(C)C)cc2)c2c(C)nc3sc(C(=O)Nc4ccc(Cl)cc4)c(N)c3c2CC1(C)O` (stereo not shown) [Compound 8c, 7-Acetyl-1-amino-N-(4-chlorophenyl)-5,8-dimethyl-8-hydroxy-6-(4-N,N-dimethyl-aminophenyl)-6,7,8,9-tetrahydrothieno[2,3-c]isoquinoline-2-carboxamide], the Toxicity % ([1]; A549, Conc. 0.04875 µMol) is reported as 10.24%, the Toxicity % ([1]; A549, Conc. 0.0975 µMol) is reported as 14.26% and the Toxicity % ([1]; A549, Conc. 0.195 µMol) is reported as 18.74%. The Viability % ([1]; A549, Conc. 0.195 µMol) was 81.26%, the Toxicity % ([1]; A549, Conc. 0.391 µMol) was 47.14% and the Viability % ([1]; A549, Conc. 0.391 µMol) was 52.86%. For the same compound, the Toxicity % ([1]; A549, Conc. 0.781 µMol) was 65.05%, the Viability % ([1]; A549, Conc. 0.781 µMol) was 34.95% and the Toxicity % ([1]; A549, Conc. 1.562 µMol) was 75.74%. It also gave a Viability % ([1]; A549, Conc. 1.562 µMol) of 24.26%, a Toxicity % ([1]; A549, Conc. 3.125 µMol) of 84.18% and a Viability % ([1]; A549, Conc. 3.125 µMol) of 15.82%. It also gave a Toxicity % ([1]; A549, Conc. 6.25 µMol) of 89.35%, a Viability % ([1]; A549, Conc. 6.25 µMol) of 10.65% and a Toxicity % ([1]; A549, Conc. 12.5 µMol) of 96.69%. It also gave a Viability % ([1]; A549, Conc. 12.5 µMol) of 3.314%, a Toxicity % ([1]; A549, Conc. 25 µMol) of 97% and a Viability % ([1]; A549, Conc. 25 µMol) of 2.998%. The IC50 ([1]; Homo sapiens, read-out: IC50 ± SD) was 332 ± 2 nM, the IC50 ([2]; Homo sapiens, MCF7, MCF7 cell line, MTT) was 215 ± 5 nM and the Toxicity % ([2]; MCF7, Conc. 0.0487 µMol) was 26.68%. It also gave a Viability % ([2]; MCF7, Conc. 0.0487 µMol) of 73.3223%, a Toxicity % ([2]; MCF7, Conc. 0.0975 µMol) of 30.4566% and a Viability % ([2]; MCF7, Conc. 0.0975 µMol) of 69.5434%. It also gave a Toxicity % ([2]; MCF7, Conc. 0.195 µMol) of 40.36%, a Viability % ([2]; MCF7, Conc. 0.195 µMol) of 59.64% and a Toxicity % ([2]; MCF7, Conc. 0.391 µMol) of 60.25%. The Viability % ([2]; MCF7, Conc. 0.391 µMol) was 39.75%, the Toxicity % ([2]; MCF7, Conc. 0.781 µMol) was 70.02% and the Viability % ([2]; MCF7, Conc. 0.781 µMol) was 29.98%. It also gave a Toxicity % ([2]; MCF7, Conc. 1.562 µMol) of 85.7%, a Viability % ([2]; MCF7, Conc. 1.562 µMol) of 14.3% and a Toxicity % ([2]; MCF7, Conc. 3.125 µMol) of 96.45%. For the same compound, the Viability % ([2]; MCF7, Conc. 3.125 µMol) was 3.554%, the Toxicity % ([2]; MCF7, Conc. 6.25 µMol) was 96.57% and the Viability % ([2]; MCF7, Conc. 6.25 µMol) was 3.431%. It also gave a Toxicity % ([2]; MCF7, Conc. 12.5 µMol) of 97.1%, a Viability % ([2]; MCF7, Conc. 12.5 µMol) of 2.9% and a Toxicity % ([2]; MCF7, Conc. 25 µMol) of 96.94%. The Viability % ([2]; MCF7, Conc. 25 µMol) was 3.064%.

Work on `COc1cccc2c1C(=O)c1c(O)c3c(c(O)c1C2=O)C[C@@](O)(C(=O)CO)C[C@@H]3O[C@H]1C[C@H](N)[C@H](O)[C@H](C)O1` [Douxrbicin] yielded an IC50 ([1]; A549) of 218 nM, a Toxicity % ([1]; A549, Conc. 0.0487 µMol) of 20% and a Viability % ([1]; A549, Conc. 0.0487 µMol) of 80%. The Viability % ([1]; A549, Conc. 0.0975 µMol) was 73.2%, the Toxicity % ([1]; A549, Conc. 0.195 µMol) was 36.33% and the Viability % ([1]; A549, Conc. 0.195 µMol) was 63.67%. The Toxicity % ([1]; A549, Conc. 0.391 µMol) was 62.45%, the Viability % ([1]; A549, Conc. 0.391 µMol) was 37.55% and the Viability % ([1]; A549, Conc. 0.781 µMol) was 20.26%. It also gave a Toxicity % ([1]; A549, Conc. 1.562 µMol) of 89.84%, a Viability % ([1]; A549, Conc. 1.562 µMol) of 10.16% and a Toxicity % ([1]; A549, Conc. 3.125 µMol) of 93.56%. The Viability % ([1]; A549, Conc. 3.125 µMol) was 6.44%, the Toxicity % ([1]; A549, Conc. 6.25 µMol) was 95.35% and the Viability % ([1]; A549, Conc. 6.25 µMol) was 4.651%. It also gave a Toxicity % ([1]; A549, Conc. 12.5 µMol) of 97.9%, a Viability % ([1]; A549, Conc. 12.5 µMol) of 2.1% and a Toxicity % ([1]; A549, Conc. 25 µMol) of 98.9%. The Viability % ([1]; A549, Conc. 25 µMol) was 1.1%.

In the case of `O=C1O[C@H]([C@@H](O)CO)C(O)=C1O` [Vitamin C, ascorbic acid, reference compound], the “DPPH scavenging, inhibition (%)” value ([3]; 0.01 µg/mL) is reported as 50.54 ± 2.76% and the “DPPH scavenging, inhibition (%)” value ([3]; 0.05 µg/mL) is reported as 69.90 ± 3.98%.
